# Patent US20130217664A1, “NOVEL COMPOUNDS USEFUL FOR THE TREATMENT OF DEGENERATIVE AND INFLAMMATORY DISEASES” (priority 2012, published 2013)
# Like-named read-outs stand apart in the source and are kept apart here.
# How the values were obtained:
# [1] = biological target: T1, human JAK1 (Homo sapiens, UniProt P23458); assay: JAK1 inhibition assay (polyGT substrate / Ulight-JAK1 peptide); type: biochemical; conditions: recombinant human JAK1 catalytic domain; polyGT or Ulight-JAK1 peptide assay
# T1 construct: catalytic domain, amino acids 866-1154; catalog number PV4774; purchased Invitrogen PV4774
# T1 sequence (P23458 866-1154): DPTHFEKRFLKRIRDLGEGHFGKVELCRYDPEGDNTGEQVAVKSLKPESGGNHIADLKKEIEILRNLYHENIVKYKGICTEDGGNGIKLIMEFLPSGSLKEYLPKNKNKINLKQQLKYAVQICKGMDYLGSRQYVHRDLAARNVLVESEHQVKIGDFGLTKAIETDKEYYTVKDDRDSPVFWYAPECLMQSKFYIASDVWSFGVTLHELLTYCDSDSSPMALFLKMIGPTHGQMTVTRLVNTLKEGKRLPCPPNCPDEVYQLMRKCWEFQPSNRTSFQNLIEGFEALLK
# In short: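 Signal scaled between vehicle and 10 μM staurosporine. Radiometric polyGT reactions ran 45 min at 30 °C, counted after phosphoric-acid stop. Ulight peptide reactions ran 60 min at room temperature, fluorescence read after adding Eu-PT66 detection mix with EDTA.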
# [2] = biological target: T2, human JAK2 (Homo sapiens, UniProt O60674); assay: JAK2 inhibition assay (polyGT substrate / Ulight-JAK1 peptide); type: biochemical; conditions: recombinant human JAK2 catalytic domain; polyGT or Ulight-JAK1 peptide assay
# T2 construct: catalytic domain (amino acids 808-1132; catalog number PV4210); GST; purchased Invitrogen PV4210
# T2 sequence (O60674 808-1132): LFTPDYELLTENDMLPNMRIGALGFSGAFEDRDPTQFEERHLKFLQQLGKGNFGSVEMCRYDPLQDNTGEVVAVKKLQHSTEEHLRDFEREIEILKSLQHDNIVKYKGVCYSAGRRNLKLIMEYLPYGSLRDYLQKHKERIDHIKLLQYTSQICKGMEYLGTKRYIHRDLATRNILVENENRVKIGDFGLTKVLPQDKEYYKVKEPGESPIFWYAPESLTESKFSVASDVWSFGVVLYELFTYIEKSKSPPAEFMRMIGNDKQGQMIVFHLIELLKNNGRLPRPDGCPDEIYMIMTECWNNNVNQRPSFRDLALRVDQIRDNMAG
# In short: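 Two JAK2 formats: a ^33P-ATP polyGT assay (1 μM cold ATP, 90 min, 30° C., cpm read-out) and a Ulight-JAK1 peptide assay read by Europium-anti-phosphotyrosine fluorescence after 60 min at room temperature.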
# [3] = test system: pSTAT1(2)-luciferase reporter in HeLa cells triggered with human OSM; assay: JAK-STAT signalling assay; type: cell-based; conditions: read-out: JAK-STAT IC50
# In short: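 Compound added 60 min before 33 ng/mL (final) human OSM; after overnight stimulation at 37 °C, luciferase signal from a transiently transfected pSTAT1(2) reporter in HeLa cells was read, with LacZ as internal control. EC50 derived from percent-inhibition dose-response curves.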
# [4] = Homo sapiens, HeLa, HeLa cells, pSTAT1(2)-luciferase reporter, human OSM 33 ng/mL
# [5] = HeLa cells, pSTAT1(2)-luciferase reporter, human OSM 33 ng/mL
IC50 [1],IC50 [2],"IC50 [3, 4]","IC50 [3, 5]",Compound,"IC50 ([3]; Homo sapiens, HeLa)"
0.01 to 100 nM,> 1000 nM,> 1000 nM,,"CCc1ccccc1N(CC1CC1)c1cc2c(cn1)ncn2C [Compound 35, N-(cyclopropylmethyl)-N-(2-ethylphenyl)-1-methyl-1H-imidazo[4,5-c]pyridin-6-amine]",
0.01 to 100 nM,> 1000 nM,> 1000 nM,,"Cc1cc(CO)ccc1N(C)c1cc2c(cn1)ncn2C [Compound 29, (3-Methyl-4-(methyl(1-methyl-1H-imidazo[4,5-c]pyridin-6-yl)amino)phenyl) MeOH]",
0.01 to 100 nM,101 to 500 nM,,> 1000 nM,"Cc1cc(-c2cn[nH]c2)ccc1N(C)c1cc2c(cn1)ncn2C [Compound 71, N,1-Dimethyl-N-(2-methyl-4-(1H-pyrazol-4-yl)phenyl)-1H-imidazo[4,5-c]pyridin-6-amine]",
0.01 to 100 nM,101 to 500 nM,> 1000 nM,,"CCc1cc(OC2CCN(S(C)(=O)=O)C2)ccc1N(C)c1cc2c(cn1)ncn2C (stereo not drawn) [Compound 110, N-(2-Ethyl-4-((1-(methylsulfonyl)pyrrolidin-3-yl)oxy)phenyl)-N,1-dimethyl-1H-imidazo[4,5-c]pyridin-6-amine]",
0.01 to 100 nM,501 to 1000 nM,> 1000 nM,,"CCc1cc(C(=O)NCc2ccccc2)ccc1N(C)c1cc2c(cn1)ncn2C [Compound 98, N-benzyl-3-ethyl-4-(methyl(1-methyl-1H-imidazo[4,5-c]pyridin-6-yl)amino)benzamide]",
0.01 to 100 nM,101 to 500 nM,1 to 500 nM,,"CCc1cc(-c2ccsc2)ccc1N(C)c1cc2c(cn1)ncn2C [Compound 127, N-(2-ethyl-4-(thiophen-3-yl)phenyl)-N,1-dimethyl-1H-imidazo[4,5-c]pyridin-6-amine]",
0.01 to 100 nM,0.01 to 100 nM,1 to 500 nM,,"CCc1cc(CNS(C)(=O)=O)c(F)cc1N(C)c1cc2c(cn1)ncn2C [Compound 325, N-{5-Ethyl-2-fluoro-4-[methyl-(1-methyl-1H-imidazo[4,5-c]pyridin-6-yl)-amino]-benzyl}-methanesulfonamide]",
0.01 to 100 nM,> 1000 nM,,> 1000 nM,"Cc1ccc(OCc2cccnc2)cc1N(C)c1cc2c(cn1)ncn2C [Compound 61, N,1-dimethyl-N-(2-methyl-5-(pyridin-3-ylmethoxy)phenyl)-1H-imidazo[4,5-c]pyridin-6-amine]",
> 1000 nM,> 1000 nM,,> 1000 nM,"COc1cc(S(=O)(=O)N2CCOCC2)ccc1N(C)c1cc2c(cn1)ncn2C [Compound 315, [2-Methoxy-4-(morpholine-4-sulfonyl)-phenyl]-methyl-(1-methyl-1H-imidazo[4,5-d]pyridin-6-yl)-amine]",
0.01 to 100 nM,501 to 1000 nM,> 1000 nM,,"CN(c1cc2c(cn1)ncn2C)c1ccccc1OC(F)F [Compound 39, N-(2-(difluoromethoxy)phenyl)-N,1-dimethyl-1H-imidazo[4,5-c]pyridin-6-amine]",
0.01 to 100 nM,101 to 500 nM,> 1000 nM,,"Cc1c(OCC#N)cccc1N(C)c1cc2c(cn1)ncn2C [Compound 64, 2-(2-methyl-3-(methyl(1-methyl-1H-imidazo[4,5-c]pyridin-6-yl)amino)phenoxy)acetoni-trile]",
0.01 to 100 nM,0.01 to 100 nM,,1 to 500 nM,"CCc1cc(C2CN(S(=O)(=O)C(F)F)C2)ncc1N(C)c1cc2c(cn1)ncn2C [Compound 329, {6-[1-(Difluoro-methanesulfonyl)-azetidin-3-yl]-4-ethyl-pyridin-3-yl}-methyl-(1-methyl-1H-imidazo[4,5-c]pyridin-6-yl)-amine]",
0.01 to 100 nM,101 to 500 nM,,> 1000 nM,"CCc1cc(C2CN(CC#N)C2)ncc1N(C)c1cc2c(cn1)ncn2C [Compound 331, (3-{4-Ethyl-5-[methyl-(1-methyl-1H-imidazo[4,5-c]pyridin-6-yl)-amino]-pyridin-2-yl}-azetidin-1-yl)-acetonitrile]",
0.01 to 100 nM,0.01 to 100 nM,1 to 500 nM,,"CCc1cc(-c2ccc(C)s2)ncc1N(C)c1cc2c(cn1)ncn2C [Compound 311, [4-Ethyl-6-(5-methyl-thiophen-2-yl)-pyridin-3-yl]-methyl-(1-methyl-1H-imidazo[4,5-c]pyridin-6-yl)-amine]",
501 to 1000 nM,> 1000 nM,,> 1000 nM,"Cc1ccc(OCc2ccc(Cl)cc2)cc1N(C)c1cc2c(cn1)ncn2C [Compound 62, N-(5-(4-chlorobenzyloxy)-2-methylphenyl)-N,1-dimethyl-1H-imidazo[4,5-c]pyridin-6-amine]",
0.01 to 100 nM,101 to 500 nM,> 1000 nM,,"CCc1ccc(C#N)cc1N(C)c1cc2c(cn1)ncn2C [Compound 83, 4-ethyl-3-(methyl(1-methyl-1H-imidazo[4,5-c]pyridin-6-yl)amino)benzonitrile]",
0.01 to 100 nM,101 to 500 nM,,501 to 1000 nM,"CCc1cc(CNS(=O)(=O)C(F)F)ncc1N(C)c1cc2c(cn1)ncn2C [Compound 343, N-{4-Ethyl-5-[methyl-(1-methyl-1H-imidazo[4,5-c]pyridin-6-yl)-amino]-pyridin-2-ylmethyl}-C,C-difluoro-methane sulfonamide]",
0.01 to 100 nM,101 to 500 nM,501 to 1000 nM,,"CCc1ccc(F)cc1N(C)c1cc2c(cn1)ncn2C [Compound 84, N-(2-ethyl-5-fluorophenyl)-N,1-dimethyl-1H-imidazo[4,5-c]pyridin-6-amine]",
101 to 500 nM,> 1000 nM,,> 1000 nM,"COc1ccc(COc2ccc(C)c(N(C)c3cc4c(cn3)ncn4C)c2)cc1 [Compound 43, N-(5-(4-methoxybenzyloxy)-2-methylphenyl)-N,1-dimethyl-1H-imidazo[4,5-c]pyridin-6-amine]",
0.01 to 100 nM,> 1000 nM,> 1000 nM,,"Cc1cc(C(N)=O)ccc1N(C)c1cc2c(cn1)ncn2C [Compound 32, 3-Methyl-4-(methyl(1-methyl-1H-imidazo[4,5-c]pyridin-6-yl)amino)benzamide]",
0.01 to 100 nM,> 1000 nM,> 1000 nM,,"CCNC(=O)c1ccc(N(C)c2cc3c(cn2)ncn3C)c(CC)c1 [Compound 102, N,3-diethyl-4-(methyl(1-methyl-1H-imidazo[4,5-c]pyridin-6-yl)amino)benzamide]",
0.01 to 100 nM,> 1000 nM,,> 1000 nM,"COc1ccc(COc2ccc(N(C)c3cc4c(cn3)ncn4C)c(C)c2)cc1 [Compound 33, N-(4-(4-Methoxybenzyloxy)-2-methylphenyl)-N,1-dimethyl-1H-imidazo[4,5-c]pyridin-6-amine]",
0.01 to 100 nM,101 to 500 nM,1 to 500 nM,,"CCc1cc(-c2cnc(NC(C)=O)nc2)ccc1N(C)c1cc2c(cn1)ncn2C [Compound 115, N-(5-(3-Ethyl-4-(methyl(1-methyl-1H-imidazo[4,5-c]pyridin-6-yl)amino)phenyl)pyrimidin-2-yl)acetamide]",
0.01 to 100 nM,101 to 500 nM,1 to 500 nM,,"CCc1cc(CO)ccc1N(C)c1cc2c(cn1)ncn2C [Compound 81, (3-Ethyl-4-(methyl(1-methyl-1H-imidazo[4,5-c]pyridin-6-yl)amino)phenyl)MeOH]",

Compound,IC50 [1],IC50 [2],"IC50 [3, 4]","IC50 [3, 5]","IC50 ([3]; Homo sapiens, HeLa)"
"CCc1cn(CCC#N)nc1N(C)c1cc2c(cn1)ncn2C [Compound 316, 3-{4-Ethyl-3-[methyl-(1-methyl-1H-imidazo[4,5-c]pyridin-6-yl)-amino]-pyrazol-1-yl}-propionitrile]",> 1000 nM,> 1000 nM,,,> 1000 nM
